In patent US20200061047A1, “NEW USE OF RIFAMYCIN-QUINOLIZIDONE DUAL-ACTION MOLECULE” (TenNor Therapeutics Limited, priority 2017, published 2020):
In brackets after ≈: the same amount, converted by molar mass. Like-named read-outs stand apart in the source and are kept apart here.

How the values were obtained:
Format in all cases: cell-based
[1] = system: Enterobacter aerogenes ATCC 13048; test: MIC, agar dilution drug sensitivity test; conditions: Klebsiella aerogenes, ATCC13048, Enterobacter aerogenes ATCC 13048, read-out: MIC
[2] = system: Salmonella spp ATCC 35987; test: MIC, agar dilution drug sensitivity test; conditions: ATCC35987, Table 1
Experimental: In this embodiment, compound I-rifamycin-quinolizidone dual-action molecule is used in a drug sensitivity test on pathogenic bacteria associated with hepatic encephalopathy, the pathogenic bacteria including the above ammonia-producing bacteria. Except that Haemophilus is tested using the microscale broth dilution method, all the other bacteria are tested using the agar dilution method consistent with that in the Guideline of the Clinical and Laboratory Standards Institute (CLSI; 1-3). All the other drug susceptibility tests are performed under anaerobic conditions except that some selective isolates are tested under both aerobic and anaerobic conditions. Control compounds include metronidazole, rifampicin, clindamycin (under anaerobic conditions) and ciprofloxacin (under aerobic and anaerobic conditions).
The tested clinical isolates may be reference strains obtained from American Type Culture Collection, ATCC, Manassas, Va. After being received, the strains are respectively inoculated on appropriate agar plates and placed under optimized conditions for growth. The growing strains are cloned in the broth containing cryoprotectant to prepare bacterial suspensions, and the bacterial suspensions are subpackaged and then stored in freezing at −80° C. Before test, the frozen bacteria are inoculated into appropriate agar dishes and cultured for growth. Anaerobic bacteria grow for 48 hours at 35° C. in a Bactron II oxygen-free cabinet (Shel Lab, Cornelius, Oreg.) before test. […]
The Minimum Inhibitory Concentration (MIC) is determined using the agar dilution method.
The MIC values of all microorganisms except Haemophilus are determined using the agar dilution method in the CLSI (1-2). […] After culturing, the MIC is determined in accordance with the CLSI guideline (1-2).

[3] = system: Lactobacillus salivarius JMI 941623; test: MIC, agar dilution drug sensitivity test; conditions: Ligilactobacillus salivarius, JMI941623, Table 1
[4] = system: Helicobacter pylori ATCC 700824; test: MIC, agar dilution drug sensitivity test; conditions: ATCC700824, Table 1
[5] = system: Proteus vulgaris MMX 6454; test: MIC, agar dilution drug sensitivity test; conditions: MMX6454, Table 1
[6] = system: Staphylococcus saprophyticus JMI 2016_703; test: MIC, agar dilution drug sensitivity test; conditions: Aerobic
[7] = system: Bifidobacterium infantis subsp. Infantis ATCC 15702; test: MIC, agar dilution drug sensitivity test; conditions: ATCC15702, Table 1
[8] = system: Corynebacterium urealyticum JMI 2015_30; test: MIC, agar dilution drug sensitivity test; conditions: Aerobic
[9] = system: Bacteroides vulgatus JMI 927011; test: MIC, agar dilution drug sensitivity test; conditions: Phocaeicola vulgatus, JMI927011
[10] = system: Escherichia coli ATCC 25922; test: MIC, agar dilution drug sensitivity test; conditions: ATCC25922, Table 1
[11] = system: Clostridium perfringens ATCC 13124; test: microbe, parasite or virus in culture; conditions: ATCC13124
[12] = system: Clostridium difficile ATCC 700057; test: MIC, agar dilution drug sensitivity test; conditions: Clostridioides difficile, ATCC700057

O=C(O)c1cn(C2CC2)c2cc(N3CCNCC3)c(F)cc2c1=O [Ciprofloxacin, ciprofloxacin]
MIC ([1]; Aerobic): 0.03 µg/mL (≈ 0.0905 µM) | MIC ([1]; Anaerobic): 2 µg/mL (≈ 6.04 µM) | MIC [2]: 0.015 µg/mL (≈ 0.0453 µM) | MIC [3]: 1 µg/mL (≈ 3.02 µM) | MIC [4]: 0.12 µg/mL (≈ 0.362 µM) | MIC [5]: 0.12 µg/mL (≈ 0.362 µM) | MIC [6]: 1 µg/mL (≈ 3.02 µM) | MIC [7]: 2 µg/mL (≈ 6.04 µM) | MIC [8]: > 16 µg/mL | MIC [9]: > 16 µg/mL | MIC [10]: 0.008 µg/mL (≈ 0.0241 µM)

CO[C@H]1/C=C/O[C@@]2(C)Oc3c(C)c(O)c4c(O)c(c(/C=N/N5CCC(N(C)C6([C@@H]7CCN(c8c(F)cn9c(=O)c(C(=O)O)cc(C%10CC%10)c9c8C)C7)CC6)CC5)c(O)c4c3C2=O)NC(=O)/C(C)=C\C=C\[C@H](C)[C@H](O)[C@@H](C)[C@@H](O)[C@@H](C)[C@H](OC(C)=O)[C@@H]1C [Compound I, (R)-3-[(4-{1-[1-(3-carboxy-1-cyclopropyl-7-fluoro-9-methyl-4-oxo-4H-quinolizine-8-yl)-pyrrolidin-3-yl-cyclopropyl]-methylamino}-piperidin-1-ylimino)-methylene]-rifamycin SV]
MIC ([1]; Aerobic): 1 µg/mL (≈ 0.83 µM) | MIC ([1]; Anaerobic): > 64 µg/mL | MIC [2]: 0.06 µg/mL (≈ 0.0498 µM) | MIC [3]: 0.5 µg/mL (≈ 0.415 µM) | MIC [4]: 0.12 µg/mL (≈ 0.0996 µM) | MIC [5]: 2 µg/mL (≈ 1.66 µM) | MIC [6]: 0.5 µg/mL (≈ 0.415 µM) | MIC [7]: 2 µg/mL (≈ 1.66 µM) | MIC [8]: 0.03 µg/mL (≈ 0.0249 µM) | MIC [9]: 16 µg/mL (≈ 13.3 µM) | MIC [10]: 0.12 µg/mL (≈ 0.0996 µM) | MIC [11]: 0.03 µg/mL (≈ 0.0249 µM) | MIC [12]: 0.004 µg/mL (≈ 0.00332 µM)
